These compounds were tested on HCV replicon cells (assay: Cell-based HCV replicon assay (replicon RNA level by real time PCR, Taqman)). Conditions: Hepatitis C virus, 72 h, harvested on day 3, EC90 = concentration necessary to achieve ΔCT=3.2 over the baseline, read-out: EC90 Range.
Experimental: Assays Cell-Based HCV Replicon Assay
To measure cell-based anti-HCV activity of the compounds of the present invention, replicon cells were seeded at 5000 cells/well in 96-well collagen I-coated Nunc plates in the presence of the compound of the invention. […] The final concentration of DMSO was 0.5%, fetal bovine serum was 10%, in the assay media. Cells were harvested on day 3 by the addition of 1× cell lysis buffer (Ambion cat #8721). The replicon RNA level was measured using real time PCR (Taqman assay). The amplicon was located in 5B. […] GAPDH RNA was used as endogenous control and was amplified in the same reaction as NS5B (multiplex PCR) using primers and VIC-labeled probe recommended by the manufacturer (PE Applied Biosystem). The real-time RT-PCR reactions were run on ABI PRISM 7900HT Sequence Detection System using the following program: 48° C. for 30 min, 95° C. for 10 min, 40 cycles of 95° C. for 15 sec, 60° C. for 1 min. The ACT values (CT5B-CTGAPDH) were plotted against the concentration of test compound and fitted to the sigmoid dose-response model using GraphPad PRISM software. EC50 was defined as the concentration of inhibitor necessary to achieve ΔCT=1 over the projected baseline; EC90 the concentration necessary to achieve ΔCT=3.2 over the baseline. Alternatively, to quantitate the absolute amount of replicon RNA, a standard curve was established by including serially diluted T7 transcripts of replicon RNA in the Taqman assay. All Taqman reagents were from PE Applied Biosystems. Such an assay procedure was described in detail in e.g. Malcolm et al., Antimicrobial Agents and Chemotherapy 50: 1013-1020 (2006).
Compound CN(C)c1nc(Cl)c(C#Cc2cccs2)c(N[C@@H]2C[C@H](CO)[C@@H](O)[C@H]2O)n1 [Compound 48] has an EC90 greater than 5000 nM.
COc1ccc(C#Cc2c(C)nc(NCCCO)nc2N[C@@H]2C[C@H](CO)[C@@H](O)[C@H]2O)cn1 [Compound 78] was tested, and the EC90 was no more than 500 nM.
Work on COc1ncccc1C#Cc1c(Cl)nc(N)nc1N[C@@H]1C[C@H](CO)[C@@H](O)[C@H]1O [Compound 12] yielded an EC90 of 500 to 5000 nM.
Compound CCOc1ccc(C#Cc2c(Cl)nc(N(C)C)nc2N[C@@H]2C[C@H](CO)[C@@H](O)[C@H]2O)cn1 [Compound 23] has an EC90 greater than 5000 nM.
In the case of COc1ccc(C#Cc2c(C)nc(NCCSC)nc2N[C@@H]2C[C@H](CO)[C@@H](O)[C@H]2O)cn1 [Compound 84], the EC90 is reported as no more than 500 nM.
For Nc1nc(Cl)c(C#Cc2ccc(-c3ccno3)s2)c(N[C@@H]2C[C@H](CO)[C@@H](O)[C@H]2O)n1 [Compound 43], the EC90 was 500 to 5000 nM.
In the case of Cc1nc(NCc2ccccn2)nc(N[C@@H]2C[C@H](CO)[C@@H](O)[C@H]2O)c1C#Cc1ccsc1 [Compound 102], the EC90 is reported as no more than 500 nM.
For Nc1nc(Cl)c(C#Cc2ccccc2Cl)c(N[C@@H]2C[C@H](CO)[C@@H](O)[C@H]2O)n1 [Compound 60], the EC90 was 500 to 5000 nM.
Cc1nc(-c2ccccc2)c(C#Cc2c(Cl)nc(N)nc2N[C@@H]2C[C@H](CO)[C@@H](O)[C@H]2O)s1 [Compound 35] gave an EC90 of no more than 500 nM.
Nc1nc(Cl)c(C#Cc2ccc(-c3ccccc3)cc2)c(N[C@@H]2C[C@H](CO)[C@@H](O)[C@H]2O)n1 [Compound 44] gave an EC90 of 500 to 5000 nM.
Work on COc1ccc(C#Cc2c(C)nc(NCC(F)(F)F)nc2N[C@@H]2C[C@H](CO)[C@@H](O)[C@H]2O)cn1 [Compound 90] yielded an EC90 of 500 to 5000 nM.
For CC(C)Oc1ncccc1C#Cc1c(Cl)nc(N)nc1N[C@@H]1C[C@H](CO)[C@@H](O)[C@H]1O [Compound 14], the EC90 was 500 to 5000 nM.
Work on COc1ccc(C#Cc2c(Cl)nc(N)nc2N[C@@H]2C[C@H](CO)[C@@H](O)[C@H]2O)c(C)n1 [Compound 3] yielded an EC90 of no more than 500 nM.
With COc1ccc(C#Cc2c(C)nc(NCCCO)nc2N[C@@H]2C[C@H](CO)[C@H]3OC(C)(C)O[C@H]32)cn1 [Compound 83] the EC90 was 500 to 5000 nM.
For CCNc1nc(C)c(C#Cc2ccc(OCC)nc2)c(N[C@@H]2C[C@H](CO)[C@@H](O)[C@H]2O)n1 [Compound 88], the EC90 was no more than 500 nM.
Nc1nc(Cl)c(C#Cc2cccnc2Cl)c(N[C@@H]2C[C@H](CO)[C@@H](O)[C@H]2O)n1 [Compound 10] was tested, and the EC90 was 500 to 5000 nM.
In the case of Nc1nc(Cl)c(C#Cc2ccc(F)nc2)c(N[C@@H]2C[C@H](CO)[C@@H](O)[C@H]2O)n1 [Compound 8], the EC90 is reported as 500 to 5000 nM.
Cc1nc(N)nc(N[C@@H]2C[C@H](CO)[C@@H](O)[C@H]2O)c1C#Cc1nccs1 [Compound 80] showed an EC90 of 500 to 5000 nM.
COc1ccc(C#Cc2c(Cl)nc(N)nc2N[C@@H]2C[C@H](CO)[C@@H](O)[C@H]2O)c(C)c1 [Compound 29] showed an EC90 of 500 to 5000 nM.
Nc1nc(Cl)c(C#Cc2ncc[nH]2)c(N[C@@H]2C[C@H](CO)[C@@H](O)[C@H]2O)n1 [Compound 13] showed an EC90 of 500 to 5000 nM.
CCOCCNc1nc(C)c(C#Cc2ccsc2)c(N[C@@H]2C[C@H](CO)[C@@H](O)[C@H]2O)n1 [Compound 103] gave an EC90 of no more than 500 nM.
COc1ccc(C#Cc2c(Cl)nc(N(C)C)nc2N[C@@H]2C[C@H](CO)[C@@H](O)[C@H]2O)cn1 [Compound 24] showed an EC90 greater than 5000 nM.
Work on CCOc1ccc(C#Cc2c(Cl)nc(N)nc2N[C@@H]2C[C@H](CO)[C@@H](O)[C@H]2O)c(C)n1 [Compound 2] yielded an EC90 of no more than 500 nM.
Compound Nc1nc(Cl)c(C#Cc2ccoc2)c(N[C@@H]2C[C@H](CO)[C@@H](O)[C@H]2O)n1 [Compound 11] has an EC90 of 500 to 5000 nM.
Compound CCNc1nc(C)c(C#Cc2ccc(OC)nc2)c(N[C@@H]2C[C@H](CO)[C@@H](O)[C@H]2O)n1 [Compound 91] has an EC90 of no more than 500 nM.
